Measurements from US9821002B2, “Method for alleviating radiation injury with isorhamnetin-3-O-β-D-glucoside” (Sinotai Oncology Associate., Ltd., priority 2015, dated 2017).

Tested on: NMuMG cells
Test: Apoptosis assay (FITC Annexin V/PI) after X-ray irradiation
Type: cell-based, mouse
Settings: 2 h pretreatment, X-ray 15 Gy, 72 hours, mean ± SEM
Text: Four groups of BNL CL.2 cells (i.e., a normal control group referred to as Normal Control Group 1-A, an X-ray control group referred to as X-Ray Control Group 1-A, and two experimental groups referred to as Experimental Groups 1-A to 2-A), and six groups of NMuMG cells (i.e., a normal control group referred to as Normal Control Group 1-B, an X-ray control group referred to as X-Ray Control Group 1-B, two isorhamnetin groups referred to as Isorhamnetin Groups 1 to 2, and two experimental groups referred to as Experimental Groups 1-B to 2-B), were prepared based on the procedure set forth in “Source and cultivation of cell lines” of “Experimental materials”. BNL CL.2 cells in each group were cultivated using 5 mL of a corresponding medium shown in Table 1 and a 6-cm Petri dish in an amount of 2×10^5 cells per dish. Likewise, NMuMG cells in each group were cultivated using 5 mL of a corresponding medium shown in Table 1 and a 6-cm Petri dish in an amount of 2.5×10^5 cells per dish. The cultivation was conducted in an incubator (37° C., 5% CO2) for 24 hours.
Subsequently, medium was replaced with fresh medium. The obtained cultures in Experimental Groups 1-A, 1-B, 2-A, and 2-B were pretreated with the stock solution of isorhamnetin-3-O-β-D-glucoside, and the obtained cultures in Isorhamnetin Groups 1 to 2 were pretreated with the stock solution of isorhamnetin.
The culture in each group was then cultivated in an incubator (37° C., 5% CO2) for two hours. The resultant culture was used for the following experiments in sections B to D.
The cultures in X-Ray Control Group 1-A, X-Ray Control Group 1-B, Isorhamnetin Group 1, Isorhamnetin Group 2, Experimental Group 1-A, Experimental Group 1-B, Experimental Group 2-A, and Experimental Group 2-B, prepared according to section A of “Experimental procedures” in this example, were subjected to X-ray irradiation using a linear accelerator at a dose of 15 Gy. The cultures in Normal Control Groups 1-A and 1-B received no X-ray irradiation treatment. The culture of BNL CL.2 cells in each group was cultivated using a 6-cm Petri dish in an incubator (37° C., 5% CO2) for 96 hours, and the culture of NMuMG cells in each group was cultivated using a 6-cm Petri dish in an incubator (37° C., 5% CO2) for 72 hours. 1 mL of trypsin-EDTA was added to the culture in each group so as to detach the cells from the bottom of the Petri dish. Following this, 1 mL of a fresh medium (corresponding to the medium described in Table 1) was added to neutralize the activity of the trypsin, and the resultant cell suspension was transferred to a centrifuge tube with a pipette, followed by centrifugation at 1200 rpm for three minutes. The supernatant was removed, and the cell pellet thus obtained was washed once with cold PBS (pH 7.4), followed by centrifugation at 1200 rpm for 3 minutes. The supernatant was removed, and 100 μL of cold Annexin V binding buffer (BD Pharmingen™) was added to sufficiently re-suspend the cell pellet thereby obtaining a cell suspension having a cell concentration of 1.0×10^6 cells/mL. Afterward, 5 μL of FITC Annexin V (BD Pharmingen™) and 5 μL of propidium iodide (PI) staining solution (BD Pharmingen™) were added to the obtained cell suspension, followed by mixing evenly and standing in the dark at 4° C. for 30 minutes so as to obtain stained cells.
Subsequently, the stained cells were analyzed using BD Accuri™ C6 flow cytometry, in which cells that could be stained with FITC Annexin V but not with PI (i.e., FITC Annexin V positive and PI negative) represented cells that were induced with early apoptosis; cells stained with both FITC Annexin V and PI (i.e., FITC Annexin V positive and PI positive) represented cells that were induced with late apoptosis; and cells that could not be stained with FITC Annexin V and PI (i.e., FITC Annexin V negative and PI negative) represented viable cells. The number of stained cells was calculated using BD Accuri™ C6 software. […]

COc1cc(-c2oc3cc(O)cc(O)c3c(=O)c2O)ccc1O [Isorhamnetin]
Apoptosis percentage (15 μM): 22.87 ± 1.33%
Apoptosis percentage (30 μM): 22.13 ± 0.29%
